In patent US7749534B2, “Pharmaceutical composition comprising oxoplatin, the salts and derivatives thereof” (Riemser Arzneimittel AG, priority 2003, dated 2010):

Assays:
[1] = Platinum in the kidneys after injection; format: in vivo; settings: 20 days after injection
Source text: A pharmaceutical agent comprising cis-diammoniumdichloro-trans-dihydroxoplatinum(IV) and/or its salts or derivatives incorporated in the base materials defined according to the invention enables effective treatment of tumors. […] In a particularly preferred fashion, salts are used, especially potassium, lithium, sodium, magnesium, barium, zinc, manganese, silver, copper, vanadium or calcium salts, wherein the anions can be e.g. chlorides, sulfates, phosphates, nitrates or carbonates or others. Other elements capable of forming salts are well-known to those skilled in the art, e.g. all elements from the main groups I to V of the Periodic Table of the Elements, as well as the elements from the subgroups I to VIII; all of the above-mentioned elements of the Periodic Table of the Elements can form cis-oxoplatinum salts.

BT20 Breast = experiment: Formazan test, cis-oxoplatin vs cis-oxoplatin Ca; format: cell-based, human; settings: Table 4, formazan test
Method: (§1) The effect of cis-oxoplatin Ca and cis-oxoplatin was compared on 10 cell lines (Table 4).
(§2) (IC50 values specified in μg/ml; the test was performed as a formazan test).

BxPC3 Pancreas = experiment: Formazan test, cis-oxoplatin vs cis-oxoplatin Ca; format: cell-based, human; settings: Table 4, formazan test
Method: as §1, §2

CRO2B Carcinoid = experiment: Formazan test, cis-oxoplatin vs cis-oxoplatin Ca; format: cell-based, human; settings: Table 4, formazan test
Method: as §1, §2

CaCo-2 Colon = experiment: Formazan test, cis-oxoplatin vs cis-oxoplatin Ca; format: cell-based, human; settings: Table 4, formazan test
Method: as §1, §2

Colo205 Colon = experiment: Formazan test, cis-oxoplatin vs cis-oxoplatin Ca; format: cell-based, human; settings: Table 4, formazan test
Method: as §1, §2

Du145 Prostate = experiment: Formazan test, cis-oxoplatin vs cis-oxoplatin Ca; format: cell-based, human; settings: Table 4, formazan test
Method: as §1, §2

HT29 Colon = experiment: Formazan test, cis-oxoplatin vs cis-oxoplatin Ca; format: cell-based, human; settings: Table 4, formazan test
Method: as §1, §2

MDA-MB-435 Breast = experiment: Formazan test, cis-oxoplatin vs cis-oxoplatin Ca; format: cell-based, human; settings: Table 4, formazan test
Method: as §1, §2

SW480 Colon = experiment: Formazan test, cis-oxoplatin vs cis-oxoplatin Ca; format: cell-based, human; settings: Table 4, formazan test
Method: as §1, §2

T47D Breast = experiment: Formazan test, cis-oxoplatin vs cis-oxoplatin Ca; format: cell-based, human; settings: Table 4, formazan test
Method: as §1, §2

10 cell lines = experiment: Formazan test, mean over 10 cell lines (Table 4); format: cell-based, human; settings: mean ±SEM over the 10 cell lines of Table 4
Method: as §1, §2

panel of cell lines = experiment: Cytotoxic activity of TRAXO, summary over 19 cell lines; format: cell-based, human; settings: for sensitivity of cell lines: T-47D and BxPC3
Method: trans-Oxoplatin was tested on a panel of cell lines, using double steps and an initial concentration of 40 μg/ml. As the IC50 values were not reached in most cases, cell survival at the highest concentration is indicated.
Cell lines sensitive to cis-oxoplatin, such as T-47D and BxPC3, are non-sensitive to TRAXO. The salts of the trans-oxoplatin compounds may have a different therapeutic potential and different effectiveness against particular human cancer cells, cell lines and tumors.

various human cell lines = experiment: Growth inhibition tests, overall comparison (Table 1 panel); format: cell-based
Method: (§3) Growth inhibition tests on various human cell lines show the different activities of cisplatin, cis-oxoplatin and oxaliplatin. […] The following Table illustrates the results produced with cisplatin, oxoplatin, carboplatin and oxaliplatin (the values specified are IC50 values in μg/ml, i.e., the concentration where 50% of the cells survive, nd=not determined; res=resistant=non-sensitive or IC50 value cannot be determined at a concentration of up to 40 μg/ml; IC=inhibition concentration).

[2] = system: HT29, SW480, SK-OV4, PC3, SIM, CaCo-2, DU145 and CRO2B cells; experiment: Growth inhibition, cis-oxoplatin vs sodium salt, summary over cell lines (Table 2); format: cell-based, human; settings: CaCo-2, DU145, CRO2B
Method: as §3
The activities differ according to the cell line.

trypsin = target: T1, trypsin (Bos taurus, UniProt P00760); experiment: Protease inhibition; format: biochemical; settings: at concentrations comparable to cisplatin
T1 construct: gene PRSS1
T1 sequence (P00760 24-246): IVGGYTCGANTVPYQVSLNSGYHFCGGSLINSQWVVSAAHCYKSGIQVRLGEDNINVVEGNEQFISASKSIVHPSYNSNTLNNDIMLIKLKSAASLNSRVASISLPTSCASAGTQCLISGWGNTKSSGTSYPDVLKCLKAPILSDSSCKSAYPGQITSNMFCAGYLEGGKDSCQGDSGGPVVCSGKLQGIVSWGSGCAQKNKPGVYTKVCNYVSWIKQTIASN
Source text: (§4) The pharmaceutical agents according to the invention, which can be produced using said kit, are capable of binding directly to a DNA. The cis-platinum compounds according to the invention have an octahedral configuration. Consequently, cis-oxoplatin in the meaning of the invention can form both intra- and inter-strand DNA complexes. Due to the specific structure of cis-oxoplatin, in contrast to cisplatin, the compounds of the invention form multiple bonds with DNA strands. Owing to the inter-strand-crosslinker complexes and intra-strand-crosslinker complexes, the compounds of the invention show advantageous specific cytostatic effects in anti-tumor therapy. The DNA adducts of the compounds according to the invention show higher charge of the platinum central atom and further have two additional ligands bound to this center. […] Potency and effectiveness of the inventive pharmaceutical agents comprising cis-oxo-platinum(IV) are largely independent of the form of application of the agents. The agents can be administered perorally, orally, rectally, subcutaneously, intramuscularly, intravenously and intraperitoneally.

α-chymotrypsin = experiment: Protease inhibition; format: biochemical; settings: at concentrations comparable to cisplatin
Source text: as §4

[3] = system: tumor rats developing both internal and external tumors; experiment: Therapeutic effect of tablets, ointments and infusion solutions in tumor rats; format: in vivo
Method: In a first test series, tablets, ointments and infusion solutions were tested on various tumor rats developing both internal and external tumors. The other drugs according to the invention were tested in additional, subsequent test series. […] In a preparation of 5 mg/ml solution, the infusion solution included 5 mg of cis-oxoplatin, 9 mg of benzyl alcohol, 2 mg of Polysorbate 80, 650 mg of 70% sorbitol solution, and 500 mg of water.
The tablets were administered in the form of a feed admixture. Infusion of the infusion solution was effected according to common laboratory practice via infusion tube.
Tumor effectiveness was established by weight determination and measuring the outer areas of degenerate tissue. As a comparison, the tumor effectiveness was also tested using an infusion solution comprising oxoplatin in sodium chloride solution and by means of direct oral administration of oxoplatin and by applying oxoplatin powder placed on the tumor area on the back of the laboratory animal by means of a bandage. Furthermore, tablets comprising cis-oxoplatin and sodium hydrogen carbonate or sodium alginate were tested.

SMILES	level of platinum compound in the kidneys [1]	IC50 (BT20 Breast)	IC50 (BxPC3 Pancreas)	IC50 (CRO2B Carcinoid)	IC50 (CaCo-2 Colon)	IC50 (Colo205 Colon)	IC50 (Du145 Prostate)	IC50 (HT29 Colon)	IC50 (MDA-MB-435 Breast)	IC50 (SW480 Colon)	IC50 (T47D Breast)	sensitivity of cell lines (panel of cell lines)	also measured
N.N.[Cl][Pt][Cl] [Cis-platin, cisplatin, reference compound]	approximately as high as one hour following injection												
N.N.N.N.[Ca+2].[O-][Pt]([OH])([Cl])[Cl].[O-][Pt]([OH])([Cl])[Cl] [Oxoplatin Ca, cis-oxoplatin calcium salt]		3.5 µg/mL	30.0 µg/mL	2.20 µg/mL	0.87 µg/mL	13.5 µg/mL	14.5 µg/mL	8.0 µg/mL	12.0 µg/mL	2.5 µg/mL	3.6 µg/mL		IC50 (±SEM) mean value for all cell lines (10 cell lines): 9.1 ± 2.8 µg/mL
[NH2][Pt]([NH2])([OH])([OH])([Cl])[Cl] [TRAXO, trans-Oxoplatin]												non-sensitive	activity against cell lines (panel of cell lines; SW 620, G-292, HOS, ACHN, HL-60, WI-38): considerable activity
N.N.[Cl-].[Cl-].[OH-].[OH-].[Pt+4] [cis-Oxoplatin, cis-diammoniumdichloro-trans-dihydroxoplatinum(IV)]	largely free of said compound	3.75 µg/mL	26.0 µg/mL	3.0 µg/mL	1.52 µg/mL	29.0 µg/mL	19.0 µg/mL	13.5 µg/mL	16.5 µg/mL	8.2 µg/mL	2.5 µg/mL	sensitive	activity compared with oxaliplatin and carboplatin (various human cell lines): activity similar to that of oxaliplatin, but higher activity than carboplatin; IC50 values of these cells (mean) [2]: 10.5 ± 6.4 µg/mL; inhibition of proteases (trypsin): does not inhibit; inhibition of proteases (α-chymotrypsin): does not inhibit; elimination [3]: rapidly eliminated; irritations in the surrounding tissue [3]: irritations in the surrounding tissue; tumor growth ([3]; no base materials): reduction of tumor growth
